Patent US8436039B2, “Inhibitors of the ATB(0,+) transporter and uses thereof” (Georgia Health Sciences University Research Institute, Inc., priority 2008, dated 2013)
Blank lines part the entries; values can stand above or below the compound they belong to.

Tests used:
Assay type in all cases: cell-based
mouse ATB^0,+ [1] = target: T1, mouse ATB^0,+ (Mus musculus, UniProt Q9JMA9); assay: Inhibition of ATB^0,+-mediated glycine uptake in HRPE cells expressing cloned mouse ATB^0,+; details: glycine 10 μM; inhibitor 1 mM; 30 min; NaCl; HRPE cells
T1 sequence (Q9JMA9 1-638): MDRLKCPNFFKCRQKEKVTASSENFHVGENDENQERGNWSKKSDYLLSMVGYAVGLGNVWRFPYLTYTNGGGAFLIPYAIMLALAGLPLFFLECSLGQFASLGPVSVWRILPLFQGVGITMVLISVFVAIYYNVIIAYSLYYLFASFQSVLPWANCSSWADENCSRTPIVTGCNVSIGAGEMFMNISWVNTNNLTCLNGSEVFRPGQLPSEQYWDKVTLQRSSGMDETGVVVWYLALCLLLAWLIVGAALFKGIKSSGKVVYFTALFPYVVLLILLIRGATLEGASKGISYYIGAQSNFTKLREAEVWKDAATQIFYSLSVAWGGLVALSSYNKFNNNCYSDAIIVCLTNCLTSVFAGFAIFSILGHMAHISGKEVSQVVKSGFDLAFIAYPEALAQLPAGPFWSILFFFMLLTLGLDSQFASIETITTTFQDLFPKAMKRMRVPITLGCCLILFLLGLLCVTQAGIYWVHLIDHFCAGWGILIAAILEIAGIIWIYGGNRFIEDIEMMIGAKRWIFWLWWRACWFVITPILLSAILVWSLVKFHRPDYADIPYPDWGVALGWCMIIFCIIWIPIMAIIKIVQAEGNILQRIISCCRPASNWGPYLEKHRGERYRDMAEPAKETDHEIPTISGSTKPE

mouse ATB^0,+ [2] = target: T1, mouse ATB^0,+; assay: Substrate-induced inward currents in X. laevis oocytes expressing mouse ATB^0,+ (two-microelectrode voltage clamp); details: NaCl, voltage clamp; for inward currents induced in ATB^0,+-expressing oocytes: 2.5 mM
Description: (§1) Capped cRNA from the cloned mouse or human ATB^0,+ cDNA was synthesized using the mMESSAGE mMACHTNE kit (Ambion, Austin, Tex., U.S.A.). Mature oocytes (stage IV or V) from X. laevis were injected with 50 ng of cRNA. Uninjected oocytes served as controls. The oocytes were used for electrophysiological studies 3-6 days after cRNA injection. Electrophysiological studies were performed by the two-microelectrode voltage-clamp method (Nakanishi et al., 2001, J. Physiol. 532, 297-304). Oocytes were superfused with an NaCl-containing buffer (100 mM NaCl, 2 mM KCl, 1 mM MgCl2, 1 mM CaCl2, 3 mM Hepes, 3 mM Mes and 3 mM Tris, pH 7.5), followed by the same buffer containing tryptophan derivatives. The membrane potential was clamped at −50 mV. The differences between the steady-state currents measured in the presence and absence of substrates were considered as the substrate-induced currents. In the analysis of the saturation kinetics of substrate-induced currents, the kinetic parameter K0.5 (i.e. substrate concentration necessary for induction of half-maximal current) was calculated by fitting the values of the substrate-induced currents to the Michaelis-Menten equation. The Na^+ and Cl^− activation kinetics of substrate-induced currents were analysed by measuring the substrate-specific currents in the presence of increasing concentrations of Na^+ (concentration of Cl^− kept constant at 100 mM) or in the presence of increasing concentrations of Cl^− (concentration of Na^+ kept constant at 100 mM). In these experiments, the composition of the superfusion buffer was modified to contain 2 mM potassium gluconate, 1 mM MgSO4 and 1 mM calcium gluconate in place of KCl, MgCl2 and CaCl2 respectively. The data from these experiments were analysed by the Hill equation to determine the Hill coefficient (h; number of Na^+ and Cl^− ions involved in the activation process). The kinetic parameters were determined by using the commercially available computer program Sigma Plot, version 6.0 (SPSS, Chicago, Ill., U.S.A.). Uninjected oocytes were used to determine the currents induced by tryptophan derivatives due to entry via transporters that may be constitutively expressed in the oocytes. At a concentration of 2.5 mM, the currents induced by these compounds were in the range of 0-3 nA in uninjected oocytes. These currents were less than 2% of the corresponding currents induced in ATB^0,+ cRNA-injected oocytes. Therefore the endogenous currents associated with the constitutively expressed transporters were not considered in the analysis of kinetic parameters of ATB^0,+ transport activity.
The above studies with the mammalian cell expression system have focused on the interaction of 1-methyltryptophan and other tryptophan derivatives with ATB^0,+ by examining the effects of these compounds on the transporter-mediated glycine uptake. These studies have shown convincingly that 1-methyltryptophan interacts with ATB^0,+, with the L-isomer having much higher affinity for the transporter than the D-isomer. However, these studies have not shown whether or not 1-methyltryptophan is actually a transportable substrate for ATB^0,+. It is possible that 1-methyltryptophan inhibits ATB^0,+-mediated glycine uptake simply by blocking the interaction of glycine with the substrate-binding site of the transporter, rather than by actually competing with glycine for the transport process. […] We wanted to know whether 1-methyltryptophan can actually be transported by ATB^0,+. For this, we used the X. laevis oocyte expression system. Since the transport process mediated by ATB^0,+ is electrogenic, exposure of ATB^0,+-expressing oocytes to transportable substrates will induce an inward current in an Na^+- and Cl^−-dependent manner. Exposure of the same oocytes to blockers will interfere with currents induced by transportable substrates, but will not induce currents by themselves. […]

ATB^0,+ in MCF7 cells = target: T2, ATB^0,+ in MCF7 cells (Homo sapiens, UniProt Q9UN76); assay: D-serine uptake in MCF7 cells (constitutively expressed ATB^0,+); details: MCF7 cells; for IC50: D-serine 5 μM, NaCl, read-out: IC50 for inhibition of D-serine uptake
T2 construct: host or cells: MCF7
T2 sequence (Q9UN76 1-642): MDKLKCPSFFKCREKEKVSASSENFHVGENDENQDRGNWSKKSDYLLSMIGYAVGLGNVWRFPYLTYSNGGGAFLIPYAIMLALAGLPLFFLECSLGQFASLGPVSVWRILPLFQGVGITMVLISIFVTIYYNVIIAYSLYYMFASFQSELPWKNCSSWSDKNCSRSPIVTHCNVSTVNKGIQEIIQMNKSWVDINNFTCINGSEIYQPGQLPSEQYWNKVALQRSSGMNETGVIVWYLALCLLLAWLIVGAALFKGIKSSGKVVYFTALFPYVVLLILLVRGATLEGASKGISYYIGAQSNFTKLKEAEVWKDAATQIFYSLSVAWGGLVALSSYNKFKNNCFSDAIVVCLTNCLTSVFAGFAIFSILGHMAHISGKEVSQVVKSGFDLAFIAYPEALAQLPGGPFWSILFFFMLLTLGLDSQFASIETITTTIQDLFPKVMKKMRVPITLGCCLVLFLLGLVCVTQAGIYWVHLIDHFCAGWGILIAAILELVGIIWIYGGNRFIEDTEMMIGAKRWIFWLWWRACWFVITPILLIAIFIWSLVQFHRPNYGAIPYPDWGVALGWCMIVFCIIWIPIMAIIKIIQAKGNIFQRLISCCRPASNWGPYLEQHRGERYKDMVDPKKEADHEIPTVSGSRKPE
Description: Cells were seeded and grown in 24-well culture plates to confluency and used for uptake measurements. Radiolabelled glycine or D-serine was used as the substrate to determine the transport function of ATB^0,+. Uptake measurements were routinely made in an NaCl-containing buffer (25 mM Hepes/Tris buffer, pH 7.4, 140 mM NaCl, 5.4 mM KCl, 1.8 mM CaCl2, 0.8 mM MgSO4 and 5 mM glucose). Ion dependence of the transport process was evaluated by studying the uptake activity in buffers of varying compositions. NaCl in the uptake buffer was replaced iso-osmotically with NMDG (N-methyl-D-glucamine) chloride to prepare an Na^+-free buffer, and with sodium gluconate to prepare a Cl^−-free buffer. Linear uptake rates were determined by employing a 10 min incubation period, based on time course experiments. Na^+-activation kinetics was analysed by studying the uptake rates in the presence of varying concentrations of Na^+ (2.5-140 mM) in the uptake buffer with Cl^− concentration kept constant at 140 mM. This was done by replacing NaCl with appropriate concentrations of NMDG. Cl^−-activation kinetics was analysed by studying the uptake rates in the presence of varying concentrations of Cl^− (2.5-100 mM) in the uptake buffer with Na^+ concentration kept constant at 140 mM. This was done by replacing NaCl with appropriate concentrations of sodium gluconate. Uptake data for Na^+- and Cl^−-activation kinetics were analysed using the Hill equation, and values for K0.5 for Na^+ and Cl^− and for the Hill coefficient (h) were determined by linear and non-linear regression methods. A commercially available software program (Sigma Plot, version 6.0; SPSS) was used for this purpose. Substrate specificity of the uptake process was evaluated by monitoring the effects of unlabelled amino acids (5 mM) on the uptake of radiolabelled glycine or D-serine (5 μM: radiolabelled substrate, 0.05 μM; unlabelled substrate, 4.95 μM).
The kinetic nature of inhibition of D-serine uptake by α-methyl-DL-tryptophan was investigated in MCF7 cells by monitoring the uptake at increasing concentrations of D-serine (range, 50-2000 μM) in the absence and presence of 100 μM α-methyl-DL-tryptophan. The kinetic parameters were calculated by linear regression (Eadie-Hofstee plots) and the values were confirmed by non-linear regression.
We employed a similar experimental strategy to detect specifically the transport function of ATB^0,+ in the remaining seven cell lines. […] We also investigated the effect of α-methyl-DL-tryptophan on D-serine uptake in MCF7 cells.

human ATB^0,+ = target: T3, human ATB^0,+ (Homo sapiens, UniProt Q9UN76); assay: Block of inward currents induced by amino acid mixture simulating plasma in X. laevis oocytes expressing human ATB^0,+; details: even at 1 mM; amino acid mixture simulating plasma
T3 construct: The human ATB^0,+ cDNA was cloned from an MCF7 cell (a human mammary epithelial cancer cell line) cDNA library; expressed in transfected cells; host or cells: Xenopus laevis oocytes injected with 50 ng capped cRNA
T3 sequence (Q9UN76 1-642): T2 sequence (Q9UN76 1-642)
Description: as §1
These studies with α-methyl-DL-tryptophan as a blocker of ATB^0,+ were carried out with L-tryptophan at sub-saturating concentrations. […] Therefore, using the Xenopus oocyte heterologous expression system, we monitored the transport activity of human ATB^0,+ in the presence of an amino acid mixture consisting of 18 different amino acids, each at its respective physiological concentration found in plasma (Glew et al., 2004, Clin. Chim. Acta 342, 179-185) (Table 1). Inward currents were detected under these conditions in oocytes expressing human ATB^0,+. […] We then monitored the ability of α-methyl-DL-tryptophan to block the inward currents induced by the same mixture of amino acids in oocytes expressing human ATB^0,+ (FIG. 4B). […]

human LAT1/4F2hc = human LAT1/4F2hc (Homo sapiens, UniProt Q01650); assay: Inhibition of LAT1 transport function: L-valine uptake in HRPE cells co-expressing human LAT1 and human 4F2hc; details: 1 mM; L-[14C]valine 0.75 μM; 5 min
Sequence of human LAT1/4F2hc (Q01650 whole entry): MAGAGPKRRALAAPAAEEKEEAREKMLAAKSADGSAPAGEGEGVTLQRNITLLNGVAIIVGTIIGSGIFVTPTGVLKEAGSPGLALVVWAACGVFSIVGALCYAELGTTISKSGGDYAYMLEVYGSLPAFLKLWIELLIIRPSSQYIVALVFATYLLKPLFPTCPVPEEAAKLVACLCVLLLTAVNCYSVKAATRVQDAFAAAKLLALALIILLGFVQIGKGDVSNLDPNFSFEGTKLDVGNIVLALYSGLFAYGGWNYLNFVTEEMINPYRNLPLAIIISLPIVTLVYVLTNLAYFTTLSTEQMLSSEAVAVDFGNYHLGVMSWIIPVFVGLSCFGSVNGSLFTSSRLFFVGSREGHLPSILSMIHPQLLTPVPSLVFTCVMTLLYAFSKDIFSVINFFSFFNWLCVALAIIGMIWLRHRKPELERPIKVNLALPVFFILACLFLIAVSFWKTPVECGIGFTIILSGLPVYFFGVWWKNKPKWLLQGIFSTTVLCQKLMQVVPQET
Sequence of human LAT1/4F2hc (P08195 102-630 partner): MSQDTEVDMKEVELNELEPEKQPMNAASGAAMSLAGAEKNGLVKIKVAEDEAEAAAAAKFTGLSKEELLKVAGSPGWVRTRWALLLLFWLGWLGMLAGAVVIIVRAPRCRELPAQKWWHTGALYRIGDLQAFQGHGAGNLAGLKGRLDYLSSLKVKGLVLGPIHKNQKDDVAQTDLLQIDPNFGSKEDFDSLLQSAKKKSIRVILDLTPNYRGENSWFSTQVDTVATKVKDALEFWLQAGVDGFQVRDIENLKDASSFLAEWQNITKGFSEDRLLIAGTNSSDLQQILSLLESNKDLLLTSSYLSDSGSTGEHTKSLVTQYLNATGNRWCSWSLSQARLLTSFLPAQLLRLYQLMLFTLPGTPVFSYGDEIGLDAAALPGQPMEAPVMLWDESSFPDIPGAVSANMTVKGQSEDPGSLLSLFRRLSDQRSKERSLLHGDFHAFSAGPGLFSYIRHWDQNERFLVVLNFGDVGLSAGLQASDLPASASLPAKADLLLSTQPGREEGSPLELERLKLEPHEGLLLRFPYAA

SMILES: Cc1ccc2[nH]cc(CC(N)C(=O)O)c2c1 (racemic) [5-methyl-DL-tryptophan]
inhibition of ATB^0,+-specific glycine uptake (mouse ATB^0,+ [1]): inhibited

SMILES: COC(=O)[C@@H](N)Cc1c[nH]c2ccccc12 [L-tryptophan methyl ester]
inhibition of ATB^0,+-specific glycine uptake (mouse ATB^0,+ [1]): inhibited

SMILES: N[C@H](Cc1c[nH]c2ccccc12)C(=O)O [D-tryptophan]
Michaelis constant (K0.5) of substrate-induced currents (mouse ATB^0,+ [2]; saturation kinetics): 288 ± 48 µM
inhibition of ATB^0,+-specific glycine uptake (mouse ATB^0,+ [1]): inhibited

Kt for D-serine uptake (ATB^0,+ in MCF7 cells; absence of the blocker): 517 ± 38 µM
Vmax for D-serine uptake (ATB^0,+ in MCF7 cells; absence of the blocker): 32.4±1.5 nmol/mg of protein per 15 min
SMILES: N[C@H](CO)C(=O)O [D-serine]

inhibition at 1000 µM (human ATB^0,+): ≤ 40%
SMILES: C[C@@](N)(Cc1c[nH]c2ccccc12)C(=O)O [α-methyl-D-tryptophan, α-Methyl-D-Tryptophan]

SMILES: N[C@@H](Cc1c[nH]c2ccccc12)C(=O)O [tryptophan]
effect on cDNA-induced valine uptake (human LAT1/4F2hc): abolished completely

SMILES: Cc1ccc2c(CC(N)C(=O)O)c[nH]c2c1 (racemic) [6-methyl-DL-tryptophan]
inhibition of ATB^0,+-specific glycine uptake (mouse ATB^0,+ [1]): inhibited

IC50 (ATB^0,+ in MCF7 cells): 250 to 500 µM
SMILES: NCCCC[C@H](N)C(=O)O [lysine]

SMILES: N[C@@H](Cc1c[nH]c2ccc(O)cc12)C(=O)O [5-hydroxy-L-tryptophan]
inhibition of ATB^0,+-specific glycine uptake (mouse ATB^0,+ [1]): inhibited

SMILES: Cc1cccc2[nH]cc(CC(N)C(=O)O)c12 (racemic) [4-methyl-DL-tryptophan]
inhibition of ATB^0,+-specific glycine uptake (mouse ATB^0,+ [1]): inhibited

SMILES: NCCc1c[nH]c2ccc(O)cc12 [5-hydroxytryptamine]
inward currents induced in ATB^0,+-expressing oocytes (mouse ATB^0,+ [2]): did not induce currents
inhibition of ATB^0,+-specific glycine uptake (mouse ATB^0,+ [1]): not able to inhibit

SMILES: CC(=O)N[C@@H](Cc1c[nH]c2ccccc12)C(=O)O [N-acetyl-L-tryptophan]
inward currents induced in ATB^0,+-expressing oocytes (mouse ATB^0,+ [2]): did not induce currents
inhibition of ATB^0,+-specific glycine uptake (mouse ATB^0,+ [1]): not able to inhibit

IC50 (ATB^0,+ in MCF7 cells): 250 to 500 µM
SMILES: N=C(N)NCCC[C@H](N)C(=O)O [Arginine]
